{"source": "patent US20100016574A1", "about": "“2'-Hydroxyl Group-Modified Ribonucleoside Derivatives” (Tokyo Institute of Technology, priority 2006, published 2010)", "assay": "Stability / elimination of the 2′-modifying group with tetrabutylammonium fluoride (TLC analysis)", "type": "physicochemical", "conditions": "room temperature", "method": "To the compound (4 mg, 0.01 mmol) synthesized in Example 8 were added 1M tetrabutylammonium fluoride/THF (1 mL), and the reaction was carried out at room temperature for 6 days. […] The compound was thus stable.\nTo the compound (4 mg, 0.01 mmol) synthesized in Example 5 was added 1 M tetrabutylammonium fluoride/THF (1 mL) for a reaction at room temperature for 10 minutes.\nTo the compound (6 mg, 0.01 mmol) synthesized in Example 16 was added 1 M tetrabutylammonium fluoride/THF (1 mL), followed by a reaction at room temperature for 2 hours."}
{"smiles": "COC(=O)CCO[C@@H]1[C@H](O)[C@@H](CO)O[C@H]1n1ccc(=O)[nH]c1=O", "note": "[Example 5, 2′-O-[2-(Methoxycarbonyl)ethyl]uridine]", "values": [{"measurement": "Elimination of 2-methoxycarbonyl group with tetrabutylammonium fluoride", "setting": "1 M tetrabutylammonium fluoride/THF, 10 minutes", "value": "Complete conversion to uridine"}]}
{"smiles": "CNC(=O)CCO[C@@H]1[C@H](O)[C@@H](COC(c2ccccc2)(c2ccc(OC)cc2)c2ccc(OC)cc2)O[C@H]1n1ccc(=O)[nH]c1=O", "note": "[Example 8, 5′-O-(4,4′-Dimethoxytrityl)-2′-O-[2-(N-methylcarbamoyl)ethyl]uridine]", "values": [{"measurement": "Stability of 2-(N-methylcarbamoyl)ethyl group to tetrabutylammonium fluoride", "setting": "1M tetrabutylammonium fluoride/THF, 6 days", "value": "No degradation was observed"}]}
{"smiles": "COc1ccc(C(OC[C@H]2O[C@@H](n3ccc(=O)[nH]c3=O)[C@H](OCCC(=O)N(C)C)[C@@H]2O)(c2ccccc2)c2ccc(OC)cc2)cc1", "note": "[Example 16, 5′-O-(4,4′-Dimethoxytrityl)-2′-O-[2-(N,N-dimethylcarbamoyl)ethyl]uridine]", "values": [{"measurement": "Elimination of 2-(N,N-dimethylcarbamoylethyl) group with tetrabutylammonium fluoride", "setting": "1 M tetrabutylammonium fluoride/THF, 2 hours", "value": "Complete conversion to 5′-O-dimethoxytrityl uridine"}]}
